In experiment [1] the target is T1, APOL1 G2 (Homo sapiens, UniProt O14791, DEL388-389).
T1 construct: expressed in transfected cells; host or cells: HEK293/T-REx APOL1 G2 clone #2, doxycycline-inducible
T1 sequence (O14791 with tags, fused parts or gaps DEL388-389): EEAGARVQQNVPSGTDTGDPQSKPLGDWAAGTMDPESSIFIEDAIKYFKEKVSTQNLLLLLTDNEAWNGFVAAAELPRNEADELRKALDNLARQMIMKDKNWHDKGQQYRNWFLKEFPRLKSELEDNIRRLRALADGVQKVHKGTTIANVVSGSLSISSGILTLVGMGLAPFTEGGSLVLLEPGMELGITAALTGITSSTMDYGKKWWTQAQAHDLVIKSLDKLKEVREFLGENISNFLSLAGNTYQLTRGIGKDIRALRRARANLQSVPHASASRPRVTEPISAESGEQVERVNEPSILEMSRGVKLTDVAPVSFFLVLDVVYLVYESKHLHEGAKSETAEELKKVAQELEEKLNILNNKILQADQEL
The experiment can be described thus: APOL1 G2 FLIPR calcium influx assay (HEK T-REx/GCaMP6f/APOL1 G2 K6.3 cells). The following applies: HEK293 clone expressing GCaMP6f, doxycycline-induced APOL1 G2; prevention of calcium influx; geometric mean of at least 2 assay runs. The format is cell-based. Put shortly: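 Cells express GCaMP6f stably and APOL1 G2 after a 6 h doxycycline induction. Duplicate 8-point dilutions sit 10 min at room temperature in Ca2+-free Tyrode's (pH 7.4), then Ca2+ is injected to 5 mM final and the FLIPR signal recorded. AC50s are geometric means across ≥2 days.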

The target in experiment [2] is T1, APOL1 G2. The experiment can be described thus: APOL1 G2 HEK293 rescue of cell death caused by overexpression of APOL1 (CellTiter-Glo). Format: cell-based. The following applies: HEK293/T-REx APOL1 G2 clone #2, doxycycline induction, 17 hours, CellTiter-Glo luminescence; reversal of cell death; geometric mean of at least 2 assay runs. The essentials:
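Viability read by CellTiter-Glo luminescence after 17 h, 37 °C, in HEK293/T-REx cells expressing APOL1 G2 on 6 ng/mL doxycycline, 5,000 cells/well. Compounds tested as duplicate 8-point, 3-fold dilutions, 0.5% DMSO final; four-parameter logistic EC50, usually geometric mean of ≥2 days.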

The structures appear in SMILES notation. pEC50: −log10 of the molar value. A value given as a limit tells only on which side of the number the result lay.

As for `C[C@@H]1C[C@H](COc2ccc(S(=O)(=O)CCO)cc2)CN1C1CCc2ccc(Cl)cc2C1` (stereo partly drawn) [Compound 61, 2-(4-{[(3S,5R)-1-[7-chloro-1,2,3,4-tetrahydronaphthalen-2-yl]-5-methylpyrrolidin-3-yl]methoxy}benzenesulfonyl)ethan-1-ol], the AC50 in experiment [1] is 698 nM. Also, in experiment [2], the pEC50 is 7.20.

Regarding `C[C@@H]1C[C@H](COc2ccc(S(C)(=O)=O)nn2)CN1CCc1cccc(C#N)c1` [Compound 26, 3-{2-[(2R,4S)-4-{[(6-methanesulfonylpyridazin-3-yl)oxy]methyl}-2-methylpyrrolidin-1-yl]ethyl}benzonitrile], the half-maximal activity concentration (AC50) in experiment [1] was 210 nM. Moreover, the pEC50 in experiment [2] was 6.56.

On to `C[C@@H]1C[C@H](COc2ccc(S(=O)(=O)CCO)cc2)CN1C1CCc2ccc(C#N)cc2C1` (single isomer, unassigned) [Compound 59, (7R or 7S)-7-[(2R,4S)-4-{[4-(2-hydroxyethanesulfonyl)phenoxy]methyl}-2-methylpyrrolidin-1-yl]-5,6,7,8-tetrahydronaphthalene-2-carbonitrile], for which the half-maximal activity concentration (AC50) in experiment [1] worked out at 794 nM. Also, in experiment [2], the pEC50 was 6.42.

With `CC(=O)N(C)CCS(=O)(=O)c1ccc(OC[C@H]2C[C@@H](C)N(CCc3cc(Cl)cc(C#N)c3)C2)cc1` [Compound 66, N-[2-(4-{[(3S,5R)-1-[2-(3-chloro-5-cyanophenyl)ethyl]-5-methylpyrrolidin-3-yl]methoxy}benzenesulfonyl)ethyl]-N-methylacetamide], the AC50 in experiment [1] is 621 nM. For the same compound, the negative-log EC50 (pEC50) in experiment [2] was 7.11.

On to `C[C@@H]1C[C@H](COc2ccc(S(=O)(=O)CCO)cc2)CN1C1CCc2c(C#N)cc(Cl)cc2C1` (single isomer, unassigned) [Compound 57, (6S or 6R)-3-chloro-6-[(2R,4S)-4-{[4-(2-hydroxyethanesulfonyl)phenoxy]methyl}-2-methylpyrrolidin-1-yl]-5,6,7,8-tetrahydronaphthalene-1-carbonitrile], for which the AC50 in experiment [1] was determined as 802 nM. For the same compound, the pEC50 in experiment [2] is 6.58.

For `CC(c1ccc(OC[C@@H]2CN(CCc3cccc(Cl)c3)CCN2)cc1)S(C)(=O)=O` (single isomer, unassigned) [Compound 142, (3S)-1-[2-(3-chlorophenyl)ethyl]-3-({4-[(1S) or (1R)-1-methanesulfonylethyl]phenoxy}methyl)piperazine], the half-maximal activity concentration (AC50) in experiment [1] was determined as 703 nM. In experiment [2], the negative logarithm of the EC50 (pEC50) was 6.64.

Turning to `C[C@@H]1CN(CCc2cc(Cl)cc(C#N)c2)C[C@H]1COc1ccc(C2(S(C)(=O)=O)COC2)cc1` [Compound 78, 3-chloro-5-{2-[(3S,4S)-3-{[4-(3-methanesulfonyloxetan-3-yl)phenoxy]methyl}-4-methylpyrrolidin-1-yl]ethyl}benzonitrile], the AC50 in experiment [1] was 114 nM. In experiment [2], the pEC50 was 7.59.

Regarding `C[C@@H]1C[C@H](COc2ccc(S(C)(=O)=O)cc2)CN1C1CCc2c(Cl)cccc2C1` (single isomer, unassigned) [Compound 139, (2R,4S)-1-[(2S or 2R)-5-chloro-1,2,3,4-tetrahydronaphthalen-2-yl]-4-[(4-methanesulfonylphenoxy)methyl]-2-methylpyrrolidine], the AC50 in experiment [1] worked out at 1260 nM. Further, the negative-log EC50 (pEC50) in experiment [2] was 6.59.

On to `CS(=O)(=O)c1ccc(OC[C@@H]2CN(C(CO)Cc3cccc(Cl)c3)CCN2)cc1` (single isomer, unassigned) [Compound 118, (2R or 2S)-3-(3-chlorophenyl)-2-[(3S)-3-[(4-methanesulfonylphenoxy)methyl]piperazin-1-yl]propan-1-ol], for which the concentration at half-maximal activity (AC50) in experiment [1] turned out to be 1250 nM. The negative-log EC50 (pEC50) in experiment [2] is under 5.00.

Regarding `C[C@@H]1C[C@H](COc2ccc(S(C)(=O)=O)cn2)CN1CCc1cc(Cl)cc(C#N)c1` [Compound 12, 3-chloro-5-{2-[(2R,4S)-4-{[(5-methanesulfonylpyridin-2-yl)oxy]methyl}-2-methylpyrrolidin-1-yl]ethyl}benzonitrile], in experiment [1], the AC50 came out at 279 nM. Besides, the pEC50 in experiment [2] was 7.00.

In the case of `C[C@@H]1C[C@H](COc2ccc(S(C)(=O)=O)cc2)CN1C1CCc2c(Cl)cccc2C1` (single isomer, unassigned) [Compound 138, (2R,4S)-1-[(2R or 2S)-5-chloro-1,2,3,4-tetrahydronaphthalen-2-yl]-4-[(4-methanesulfonylphenoxy)methyl]-2-methylpyrrolidine], the concentration at half-maximal activity (AC50) in experiment [1] stood at 1080 nM. In experiment [2], the pEC50 was 6.83.

Consider `C[C@H]1C[C@H](COc2ccc(S(C)(=O)=O)cc2)CN1CCc1cccc(Cl)c1` [Compound 143, (2S,4S)-1-[2-(3-chlorophenyl)ethyl]-4-[(4-methanesulfonylphenoxy)methyl]-2-methylpyrrolidine], for which the AC50 in experiment [1] was 936 nM. In experiment [2], the pEC50 was 5.92.

`CN=S(C)(=O)c1ccc(OC[C@@H]2CN(CCc3cccc(C#N)c3)C[C@H]2C)cn1` (single isomer, unassigned) [Compound 73]: in experiment [1], the AC50 is 351 nM. The pEC50 in experiment [2] is 6.43.

Regarding `C[C@@H]1C[C@H](COc2ccc(S(C)(=O)=O)nc2)CN1CCc1cc(C#N)cc(C#N)c1` [Compound 39, 5-{2-[(2R,4S)-4-{[(6-methanesulfonylpyridin-3-yl)oxy]methyl}-2-methylpyrrolidin-1-yl]ethyl}benzene-1,3-dicarbonitrile], the AC50 in experiment [1] turned out to be 554 nM. Also, in experiment [2], the negative logarithm of the EC50 (pEC50) is 6.92.

As to `C[C@@H]1C[C@H](COc2ccc(S(=O)(=O)CCS(C)(=O)=O)cc2)CN1C1CCc2ccc(C#N)cc2C1` (single isomer, unassigned) [Compound 32], the AC50 in experiment [1] stood at 769 nM. For the same compound, in experiment [2], the pEC50 is 6.45.

For `C[C@@H]1C[C@H](COc2ccc(S(C)(=O)=O)cc2)CN1C1CCc2ccc(Cl)cc2C1` (single isomer, unassigned) [Compound 6, (2R,4S)-1-[(2R or 2S)-7-chloro-1,2,3,4-tetrahydronaphthalen-2-yl]-4-[(4-methanesulfonylphenoxy)methyl]-2-methylpyrrolidine], in experiment [1], the AC50 was 839 nM. For the same compound, the pEC50 in experiment [2] was 6.18.

On to `CC(=O)N(C)CCS(=O)(=O)c1ccc(OC[C@@H]2CN(CCc3cc(Cl)cc(C#N)c3)C[C@H]2C)cc1` [Compound 75, N-[2-(4-{[(3S,4S)-1-[2-(3-chloro-5-cyanophenyl)ethyl]-4-methylpyrrolidin-3-yl]methoxy}benzenesulfonyl)ethyl]-N-methylacetamide], for which the concentration at half-maximal activity (AC50) in experiment [1] amounted to 419 nM. For the same compound, the pEC50 in experiment [2] is 7.15.

In the case of `C[C@@H]1C[C@H](COc2ccc(S(C)(=O)=O)cc2)CN1C1CCc2ccc(Cl)cc2C1` (single isomer, unassigned) [Compound 5, (2R,4S)-1-[(2S or 2R)-7-chloro-1,2,3,4-tetrahydronaphthalen-2-yl]-4-[(4-methanesulfonylphenoxy)methyl]-2-methylpyrrolidine], the AC50 in experiment [1] stood at 488 nM. For the same compound, the pEC50 in experiment [2] is 7.32.

With `C[C@@H]1C[C@H](COc2ccc(S(C)(=O)=O)nc2)CN1CC(O)c1cccc(C#N)c1` (single isomer, unassigned) [Compound 94, 3-[(1S or 1R)-1-hydroxy-2-[(2R,4S)-4-{[(6-methanesulfonylpyridin-3-yl)oxy]methyl}-2-methylpyrrolidin-1-yl]ethyl]benzonitrile], the AC50 in experiment [1] came out at 614 nM. In addition, the negative-log EC50 (pEC50) in experiment [2] was 6.99.

Regarding `Cc1cc(OC[C@H]2C[C@@H](C)N(CCc3cccc(C#N)c3)C2)cnc1S(C)(=O)=O` (single isomer, unassigned) [Compound 30], the half-maximal activity concentration (AC50) in experiment [1] amounted to 185 nM. In addition, the negative logarithm of the EC50 (pEC50) in experiment [2] is 7.42.

(Values after patent US20260055083A1, “APOL1 INHIBITORS AND METHODS OF USE” (Maze Therapeutics, Inc., priority 2022, published 2026).)
